Several values for one entry are separate records, joined by “and”; a condition that tells them apart may be missing. Equal entries are not always repeated.
Tested on: 743489-274-T-PDC complex spheroid viability
Test: Anticancer human tumor 743489-274-T-PDC patient-derived renal cell carcinoma cell line growth inhibition
Settings: for viability, T/C: stronger effect = lower value
Source text: Multicellular complex tumor spheroid response to LSD1 Inhibitor Iadademstat in combination with a variety of drugs and investigational agents in selected tumor cell lines
The current study was undertaken to assess response to LSD1 inhibitors in combination with standard-of-care drugs and investigational agents in solid tumor complex spheroid models as well as in the K-562 leukemia. Complex spheroids include a stromal component modeled by human endothelial cells (HUVEC) and fibroblasts modeled by human mesenchymal stem cells (MSCs). The concentration ranges selected for each drug and investigational agent were based upon clinically achievable concentrations if the clinical Cmax of the agent was known.
Compounds. The drugs and investigational agents used in this study are listed on Table 1. All of the agents used, including staurosporine (NSC755774) and gemcitabine (NSC613327), were obtained from the Developmental Therapeutics Program, NCI. FDA-approved anticancer drugs are available from the NCI at http://dtp.nci.nih.gov/branches/dscb/oncology_drugset_explanation.html. Drugs and investigational agents were >95% pure by proton nuclear magnetic resonance (NMR) and liquid chromatography/mass spectrometry (LC/MS). Stock solutions were prepared at 400x in DMSO, stored at -70 degrees C, and diluted in fresh medium prior to their use. The final concentration of DMSO in cell culture wells never exceeded 0.25% (v/v). The FDA-approved anticancer drug set is available from the Developmental Therapeutics Program at https://dtp.cancer.gov/organization/dscb/obtaining/available_plates.htm. All drugs and investigational agents were tested over a range starting from a high concentration at or near the clinical Cmax and decreasing in half-log increments. If the clinical Cmax for an agent had not been determined, the highest concentration tested was 10 microM.
Cell Lines. The patient-derived cancer cell (PDC) lines: 292921-168-R-J2-PDC, K24384-001-R-PDC, and 521955-158-R2-J5-PDC pancreatic carcinomas, 556581-035-R-J1 ovarian carcinoma, 324938-238-R-J1-PDC, 855422-203-R-J1-PDC and 883617-216-R-J1-PDC urothelial bladder carcinomas, 743489-274-T-PDC renal cell carcinoma, 138582-R-J1 Merkel cell tumor, K60290-347-R-J1 and K57222-313-R-J1-PDC glioblastomas, 653999-131-R-J2-PDC, LG0703-F948-PDC, and 349418-098-R-PDC non-small cell lung carcinomas, 885512-296-R-J2-PDC, 171881-019-R-J1-PDC breast carcinomas and 186277-243-T-J2-PDC and 233499-124-R-J2-PDC colon carcinomas were obtained from the NCI Patient-Derived Models Repository (PDMR, https://pdmr.cancer.gov). The established cell lines NCI/ADR-RES (RRID:CVCL_14520 and OVCAR-5 (RRID:CVCL_1628) ovarian carcinomas, 786-O (RRID:CVCL_1051) and A498 (RRID:CVCL_A498) renal cell carcinoma, NCI-H211 (ATCC, cat. CRL-5824; RRID:CVCL_1529), NCI-H196 (ATCC, cat. CRL-5823, RRID:CVCL_1509), SW 1271 (ATCC, cat. CRL-2177, RRID:CVCL_1716) and NCI-H1876 (ATCC, cat. CRL-5902, RRID:CVCL_1503) small cell lung carcinomas, MDA-MB-231 (RRID:CVCL_0062) and MDA-MB-468 (RRID:CVCL_0419)breast carcinomas (10-12). Pooled donor human umbilical vein endothelial cells (HUVEC, Lonza, cat. CC-2519) and human mesenchymal stem cells (hMSC, Lonza, cat. PT-2501) were purchased from Lonza (Walkersville, MD).
Cell Culture. All cells were maintained in an incubator at 37 degrees C and 5% CO2 with 95% humidity. The PDC lines were cultured according to standard operating procedures established by the NCI PDMR (https://pdmr.cancer.gov). Briefly all PDCs were thawed and cultured in Matrigel-coated flasks prepared with a working solution of 1X Ham's F-12 nutrient mix, without supplementation (Invitrogen, Waltham, MA, cat. 11765054), 100 U/mL penicillin-streptomycin (Invitrogen, cat. 15140122), and 2.5% Matrigel (Corning Inc., Corning, NY, cat. 354248) for the first three passages. […]
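Further: spheroids exposed to compounds for 7 days before readout.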
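Wherever viability, T/C is given: 100% = DMSO vehicle control wells.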

Structure (SMILES)	viability, T/C (compound 0.00316 µM)	viability, T/C (compound 0.01 µM)	viability, T/C (compound 0.0316 µM)	viability, T/C (compound 0.1 µM)	IC50 (curve of compound)	viability, T/C (compound 0.316 µM)	viability, T/C (compound 1 µM)	viability, T/C (compound 0.00949 µM)	viability, T/C (compound 0.03 µM)	viability, T/C (compound 0.0949 µM)	viability, T/C (compound 0.3 µM)	other results
CC(C)CC(NC(=O)C(Cc1ccccc1)NC(=O)c1cnccn1)B(O)O (stereo not given)	106% and 94.2%	31% and 40%	26.9% and 31.4%	24.4% and 27.6%	0.00731 µM and 0.00809 µM							viability, T/C (compound 0.000316 µM): 102% and 104%; viability, T/C (compound 0.001 µM): 93.9% and 105%
CC(C)CC(NC(=O)CNC(=O)c1cc(Cl)ccc1Cl)B1OC(=O)CC(CC(=O)O)(C(=O)O)O1 (stereo not given)	99.5% and 94.1%	84.9% and 83.3%	84% and 76.2%	58.8% and 44.4%	> 0.1 µM and 0.0847 µM							viability, T/C (compound 0.000316 µM): 97.9% and 109%; viability, T/C (compound 0.001 µM): 89.1% and 112%
CC(C)c1c(-c2ccccc2)nc2c(C#N)c[nH]n2c1=O			106% and 94.8%	100% and 102%	> 10 µM	86.4% and 102%	96% and 107%					viability, T/C (compound 3.16 µM): 93.2% and 93.5%
CC1(C)CCC(CN2CCN(c3ccc(C(=O)NS(=O)(=O)c4ccc(NCC5CCOCC5)c([N+](=O)[O-])c4)c(Oc4cnc5[nH]ccc5c4)c3)CC2)=C(c2ccc(Cl)cc2)C1			90.8% and 100%	108%	> 10 µM	104% and 109%	113% and 111%					viability, T/C (compound 3.16 µM): 128% and 106%; viability, T/C (compound 10 µM): 120% and 122%
CC1COCCN1c1cc(-c2ccnn2C)c2ccnc(-c3ccn[nH]3)c2n1 (stereo not given)	102% and 81.5%	107%	78.8% and 87.5%	70.9% and 71.9%	> 1 µM	71.5% and 56.4%	64.2% and 53.2%					
CC1COCCN1c1cc(C2(S(C)(=N)=O)CC2)nc(-c2ccnc3[nH]ccc23)n1 (stereo not given)			93.4% and 107%	112% and 104%	> 10 µM	99.9% and 87%	93.9% and 91.4%					viability, T/C (compound 3.16 µM): 100% and 90.3%; viability, T/C (compound 10 µM): 81.3% and 63.8%
CCN(c1cc(-c2ccc(CN3CCOCC3)cc2)cc(C(=O)NCc2c(C)cc(C)[nH]c2=O)c1C)C1CCOCC1					> 3 µM			106% and 107%	94.5% and 105%	87.8% and 92.8%	97.2% and 111%	viability, T/C (compound 0.949 µM): 98.5% and 105%; viability, T/C (compound 3 µM): 95.9% and 105%
CC[C@@]1(O)C(=O)OCc2c1cc1n(c2=O)Cc2cc3c(CN(C)C)c(O)ccc3nc2-1	96.5% and 72.1%	86.4% and 76.7%	75.1% and 60.3%	63.7% and 57.8%	> 0.1 µM							viability, T/C (compound 0.000316 µM): 103% and 92.9%; viability, T/C (compound 0.001 µM): 104% and 83.4%
CCc1c2c(nc3ccc(O)cc13)-c1cc3c(c(=O)n1C2)COC(=O)[C@]3(O)CC					0.0207 µM and 0.00536 µM			61.9% and 44.5%	40.2% and 45.4%	45.4% and 44.3%	43.2% and 39.3%	viability, T/C (compound 0.000949 µM): 88.1% and 71.3%; viability, T/C (compound 0.003 µM): 68% and 54.2%
COc1cc(C2c3cc4c(cc3C(OC3OC5COC(C)OC5C(O)C3O)C3COC(=O)C23)OCO4)cc(OC)c1O (stereo not given)					> 3 µM			98.2% and 111%	114% and 112%	70.3% and 81.1%	92.8% and 99.4%	viability, T/C (compound 0.949 µM): 98.9% and 88.8%; viability, T/C (compound 3 µM): 82% and 91.5%
COc1cc(Nc2ncc3c(n2)-c2ccc(Cl)cc2C(c2c(F)cccc2OC)=NC3)ccc1C(=O)O	102% and 91.3%	91.3% and 102%	89.6% and 92%	92.6% and 90.8%	> 1 µM	94.2% and 87.2%	91.7% and 67.7%					
COc1ccc([C@@H](O)c2cc(-c3ncnc4cc(N5CCOCC5)ccc34)c(F)cc2Cl)nn1			108% and 93.4%	100% and 95.8%	1.73 µM and 0.753 µM	90.5% and 72.5%	59.4% and 43.6%					viability, T/C (compound 3.16 µM): 38.7% and 21.3%; viability, T/C (compound 10 µM): 20.8% and 19.4%
Cn1ncnc1C1c2n[nH]c(=O)c3cc(F)cc(c23)NC1c1ccc(F)cc1 (stereo not given)	90.2% and 98.6%	95.9% and 90.8%	93.7% and 92.8%	91.4% and 84.3%	> 0.1 µM							viability, T/C (compound 0.000316 µM): 88.5% and 99.7%; viability, T/C (compound 0.001 µM): 100% and 110%
NC1CC1c1ccc(-c2cccc(O)c2)cc1 (stereo not given)						103% [middle of 25 runs]						IC50 (compound alone, run of 12/07/2021): > 10 µM
NC1CCC(NC2CC2c2ccccc2)CC1 (stereo not given)						105% and 107%						IC50 (compound alone, run of 11/29/2021): > 10 µM
NS(=O)(=O)OCC1CC(n2ccc3c(NC4CCc5ccccc54)ncnc32)CC1O (stereo not given)					> 3 µM			90.9% and 95.7%	95.9% and 111%	111% and 103%	118% and 135%	viability, T/C (compound 0.949 µM): 116% and 125%; viability, T/C (compound 3 µM): 121% and 101%
Nc1ccccc1NC(=O)c1ccc(CNC(=O)OCc2cccnc2)cc1					1.16 µM and 0.758 µM			85.4% and 102%	89.2% and 78%	95.2% and 79.4%	78.8% and 67.1%	viability, T/C (compound 0.949 µM): 54.2% and 47.6%; viability, T/C (compound 3 µM): 32.6% and 26.4%
Nc1ccn(C2OC(CO)C(O)C2(F)F)c(=O)n1 (stereo not given)					> 0.3 µM			73% and 96.8%	73.7% and 58%	71.6% and 64.1%	65.2% and 63.2%	viability, T/C (compound 0.000949 µM): 82.7% and 61.8%; viability, T/C (compound 0.003 µM): 85.6% and 60.9%
Nc1ncn(C2CC(O)C(CO)O2)c(=O)n1 (stereo not given)	105% and 90.1%	98% and 100%	81% and 101%	96.1% and 84.5%	> 1 µM	96% and 94.3%	84.3% and 97.7%					
Nc1ncn(C2CC(O)C(CO)S2)c(=O)n1 (stereo not given)					> 0.3 µM			90.8% and 92%	80.2% and 82.5%	89.9% and 81.5%	88.7% and 75.2%	viability, T/C (compound 0.000949 µM): 106% and 96.8%; viability, T/C (compound 0.003 µM): 108% and 96.2%
O=C(C=Cc1cccc(S(=O)(=O)Nc2ccccc2)c1)NO					1.61 µM and 1.01 µM			89.9% and 92.2%	83.1% and 89.3%	76.4% and 75%	66.4% and 65%	viability, T/C (compound 0.949 µM): 55.4% and 51.6%; viability, T/C (compound 3 µM): 43.6% and 35.7%
O=C(C=Cn1cnc(-c2cc(C(F)(F)F)cc(C(F)(F)F)c2)n1)NNc1cnccn1	106% and 109%	108% and 91%	121% and 117%	115% and 97.5%	> 1 µM	94.2% and 86.3%	81.2% and 73.2%					
O=C(c1cc(Cc2n[nH]c(=O)c3ccccc23)ccc1F)N1CCN(C(=O)C2CC2)CC1			95.3% and 101%	88.2% and 113%	> 10 µM	102% and 108%	108%					viability, T/C (compound 3.16 µM): 94.5% and 93.2%; viability, T/C (compound 10 µM): 83% and 82.5%

From PubChem BioAssay AID1918942 (Molecular Pharmacology Branch, DTP, NCI, 2023)
